# Legend:
# Assay in all cases: KINOMEscan
# Type in all cases: binding
# Conditions in all cases: 1 μM of compound 4; read-out: POC
# MAP4K2 = MAP4K2 (Homo sapiens, UniProt Q12851)
# PIK3CA(M1043I) = PIK3CA(M1043I) (Homo sapiens, UniProt P42336, M1043I)
# CSNK1A1 = CSNK1A1 (Homo sapiens, UniProt P48729)
# TIE2 = biological target: T1, TIE2 (Homo sapiens, UniProt Q02763)
# T1 construct: purchased Eurofins DiscoverX Corporation
# DDR1 = DDR1 (Homo sapiens, UniProt Q08345)
# ERN1 = biological target: T2, ERN1 (Homo sapiens, UniProt O75460)
# T2 construct: purchased Eurofins DiscoverX Corporation
# PRKCH = PRKCH (Homo sapiens, UniProt P24723)
# ERK8 = biological target: T3, ERK8 (Homo sapiens, UniProt Q8TD08)
# T3 construct: purchased Eurofins DiscoverX Corporation
# FLT3(N841I) = biological target: T4, FLT3(N841I) (Homo sapiens, UniProt P36888, N841I)
# T4 construct: purchased Eurofins DiscoverX Corporation
# SRPK3 = biological target: T5, SRPK3 (Homo sapiens, UniProt Q9UPE1)
# T5 construct: purchased Eurofins DiscoverX (KINOMEscan service)
# NEK3 = NEK3 (Homo sapiens, UniProt P51956)
# CDK3 = CDK3 (Homo sapiens, UniProt Q00526)
# MARK4 = MARK4 (Homo sapiens, UniProt Q96L34)
# PKN1 = PKN1 (Homo sapiens, UniProt Q16512)
# SGK = biological target: T6, SGK (Homo sapiens, UniProt O00141)
# T6 construct: purchased Eurofins DiscoverX (KINOMEscan service)
# CDK2 = CDK2 (Homo sapiens, UniProt P24941)
# [1] = biological target: T7, ABL1(T315I)-phosphorylated (Homo sapiens, UniProt P00519, T315I)
# T7 construct: purchased Eurofins DiscoverX Corporation
# GRK7 = biological target: T8, GRK7 (Homo sapiens, UniProt Q8WTQ7)
# T8 construct: purchased Eurofins DiscoverX Corporation
# EGFR(S752-1759del) = biological target: T9, EGFR(S752-1759del) (Homo sapiens, UniProt P00533, DEL752-759)
# T9 construct: purchased Eurofins DiscoverX (KINOMEscan service)
# OSR1 = biological target: T10, OSR1 (Homo sapiens, UniProt O95747)
# T10 construct: purchased Eurofins DiscoverX Corporation (KINOMEscan)
# NEK1 = NEK1 (Homo sapiens, UniProt Q96PY6)
# ADCK4 = ADCK4 (Homo sapiens, UniProt Q96D53)
# FLT3(R834Q) = biological target: T11, FLT3(R834Q) (Homo sapiens, UniProt P36888, R834Q)
# T11 construct: purchased Eurofins DiscoverX Corporation
# MLK2 = MLK2 (Homo sapiens, UniProt Q02779)
# LYN = LYN (Homo sapiens, UniProt P07948)
# YANK3 = biological target: T12, YANK3 (Homo sapiens, UniProt Q86UX6)
# T12 construct: purchased Eurofins DiscoverX
# TESK1 = biological target: T13, TESK1 (Homo sapiens, UniProt Q15569)
# T13 construct: purchased Eurofins DiscoverX Corporation
# TAOK3 = biological target: T14, TAOK3 (Homo sapiens, UniProt Q9H2K8)
# T14 construct: purchased Eurofins DiscoverX Corporation
# MAP4K4 = MAP4K4 (Homo sapiens, UniProt O95819)
# MKNK1 = MKNK1 (Homo sapiens, UniProt Q9BUB5)
# NDR2 = NDR2 (Homo sapiens, UniProt Q9Y2H1)
# PIK3C2B = PIK3C2B (Homo sapiens, UniProt O00750)
# MRCKA = MRCKA (Homo sapiens, UniProt Q5VT25)
# MAK = MAK (Homo sapiens, UniProt P20794)
# CHEK2 = CHEK2 (Homo sapiens, UniProt O96017)
# CAMK1D = CAMK1D (Homo sapiens, UniProt Q8IU85)
# RET(V804L) = biological target: T15, RET(V804L) (Homo sapiens, UniProt P07949, V804L)
# T15 construct: purchased Eurofins DiscoverX Corporation (KINOMEscan screening service)
# IKK-epsilon = IKK-epsilon (Homo sapiens, UniProt Q14164)
# CLK3 = CLK3 (Homo sapiens, UniProt P49761)
# T2 sequence (O75460 19-977): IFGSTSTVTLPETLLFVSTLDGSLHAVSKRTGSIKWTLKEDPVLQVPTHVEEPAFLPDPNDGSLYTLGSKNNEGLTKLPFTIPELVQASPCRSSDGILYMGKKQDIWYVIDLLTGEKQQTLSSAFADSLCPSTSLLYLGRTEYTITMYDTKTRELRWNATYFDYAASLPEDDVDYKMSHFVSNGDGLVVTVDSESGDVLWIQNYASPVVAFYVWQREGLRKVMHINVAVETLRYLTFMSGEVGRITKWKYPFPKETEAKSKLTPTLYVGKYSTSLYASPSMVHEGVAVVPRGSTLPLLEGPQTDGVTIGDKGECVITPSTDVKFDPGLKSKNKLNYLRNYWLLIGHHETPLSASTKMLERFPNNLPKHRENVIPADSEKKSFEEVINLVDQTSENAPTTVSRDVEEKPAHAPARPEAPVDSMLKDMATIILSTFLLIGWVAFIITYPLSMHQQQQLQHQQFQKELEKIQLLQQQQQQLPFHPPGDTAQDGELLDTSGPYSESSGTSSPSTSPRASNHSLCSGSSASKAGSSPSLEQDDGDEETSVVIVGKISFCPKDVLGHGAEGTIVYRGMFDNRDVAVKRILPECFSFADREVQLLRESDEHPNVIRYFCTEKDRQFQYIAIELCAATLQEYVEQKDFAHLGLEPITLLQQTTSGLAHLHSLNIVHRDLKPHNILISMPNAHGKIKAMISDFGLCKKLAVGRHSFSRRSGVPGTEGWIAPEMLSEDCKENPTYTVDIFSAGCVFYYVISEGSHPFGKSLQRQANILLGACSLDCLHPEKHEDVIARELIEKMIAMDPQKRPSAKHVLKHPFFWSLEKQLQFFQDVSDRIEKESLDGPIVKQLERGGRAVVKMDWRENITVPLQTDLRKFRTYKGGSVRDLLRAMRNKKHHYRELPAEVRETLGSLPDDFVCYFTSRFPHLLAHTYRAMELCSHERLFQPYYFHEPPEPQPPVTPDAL
# PIK3CA(M1043I), sequence (P42336 whole entry M1043I): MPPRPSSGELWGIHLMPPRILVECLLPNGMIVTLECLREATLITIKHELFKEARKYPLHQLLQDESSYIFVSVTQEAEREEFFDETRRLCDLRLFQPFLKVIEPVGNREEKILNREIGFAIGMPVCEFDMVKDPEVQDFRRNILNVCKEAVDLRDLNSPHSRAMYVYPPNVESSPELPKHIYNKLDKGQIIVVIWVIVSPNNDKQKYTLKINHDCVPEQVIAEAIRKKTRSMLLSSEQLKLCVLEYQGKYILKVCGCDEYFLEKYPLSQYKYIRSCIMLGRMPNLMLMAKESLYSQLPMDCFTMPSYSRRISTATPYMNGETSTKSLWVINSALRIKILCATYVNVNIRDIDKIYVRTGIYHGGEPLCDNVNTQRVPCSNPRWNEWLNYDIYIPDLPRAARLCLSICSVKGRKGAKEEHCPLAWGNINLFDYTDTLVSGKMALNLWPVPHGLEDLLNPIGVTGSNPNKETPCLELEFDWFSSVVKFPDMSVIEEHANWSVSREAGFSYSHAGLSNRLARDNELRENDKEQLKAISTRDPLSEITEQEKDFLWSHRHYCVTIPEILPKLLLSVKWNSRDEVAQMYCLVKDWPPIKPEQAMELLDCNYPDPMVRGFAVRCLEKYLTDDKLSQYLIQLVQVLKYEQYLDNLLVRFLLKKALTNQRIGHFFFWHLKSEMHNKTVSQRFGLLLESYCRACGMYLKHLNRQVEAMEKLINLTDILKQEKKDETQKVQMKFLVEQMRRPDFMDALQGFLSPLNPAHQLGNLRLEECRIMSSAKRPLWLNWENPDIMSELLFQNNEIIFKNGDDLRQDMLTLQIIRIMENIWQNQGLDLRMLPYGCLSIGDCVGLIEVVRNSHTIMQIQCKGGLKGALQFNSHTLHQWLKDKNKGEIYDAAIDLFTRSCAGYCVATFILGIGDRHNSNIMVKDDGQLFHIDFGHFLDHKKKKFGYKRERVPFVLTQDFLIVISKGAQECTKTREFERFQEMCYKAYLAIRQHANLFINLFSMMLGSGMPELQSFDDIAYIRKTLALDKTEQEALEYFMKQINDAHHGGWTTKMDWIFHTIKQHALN
# NEK3, sequence (P51956 whole entry): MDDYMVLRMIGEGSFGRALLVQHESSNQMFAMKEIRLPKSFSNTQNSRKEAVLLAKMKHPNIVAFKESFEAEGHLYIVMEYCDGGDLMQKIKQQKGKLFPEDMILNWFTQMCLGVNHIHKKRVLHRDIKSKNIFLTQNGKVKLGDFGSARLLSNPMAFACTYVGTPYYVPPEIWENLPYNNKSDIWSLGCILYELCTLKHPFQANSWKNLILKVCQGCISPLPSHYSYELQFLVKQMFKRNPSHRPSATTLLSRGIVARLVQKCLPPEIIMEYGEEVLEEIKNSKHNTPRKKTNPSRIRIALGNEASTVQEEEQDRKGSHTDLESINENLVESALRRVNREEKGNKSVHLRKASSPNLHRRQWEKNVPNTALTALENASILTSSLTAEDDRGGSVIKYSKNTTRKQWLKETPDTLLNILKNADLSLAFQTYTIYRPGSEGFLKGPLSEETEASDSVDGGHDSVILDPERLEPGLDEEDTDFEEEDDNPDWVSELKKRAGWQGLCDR
# T6 sequence (O00141 whole entry): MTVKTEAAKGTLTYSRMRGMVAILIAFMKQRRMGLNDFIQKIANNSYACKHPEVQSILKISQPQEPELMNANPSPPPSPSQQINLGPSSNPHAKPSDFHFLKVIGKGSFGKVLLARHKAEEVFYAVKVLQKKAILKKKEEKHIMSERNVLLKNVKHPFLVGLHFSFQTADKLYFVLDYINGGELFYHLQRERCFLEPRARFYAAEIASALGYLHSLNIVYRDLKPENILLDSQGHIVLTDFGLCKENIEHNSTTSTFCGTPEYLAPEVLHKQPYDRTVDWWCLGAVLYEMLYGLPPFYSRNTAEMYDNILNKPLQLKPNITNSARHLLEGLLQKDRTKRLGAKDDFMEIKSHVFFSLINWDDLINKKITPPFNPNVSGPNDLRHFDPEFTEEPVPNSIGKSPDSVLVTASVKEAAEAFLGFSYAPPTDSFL
# CDK3, sequence (Q00526 whole entry): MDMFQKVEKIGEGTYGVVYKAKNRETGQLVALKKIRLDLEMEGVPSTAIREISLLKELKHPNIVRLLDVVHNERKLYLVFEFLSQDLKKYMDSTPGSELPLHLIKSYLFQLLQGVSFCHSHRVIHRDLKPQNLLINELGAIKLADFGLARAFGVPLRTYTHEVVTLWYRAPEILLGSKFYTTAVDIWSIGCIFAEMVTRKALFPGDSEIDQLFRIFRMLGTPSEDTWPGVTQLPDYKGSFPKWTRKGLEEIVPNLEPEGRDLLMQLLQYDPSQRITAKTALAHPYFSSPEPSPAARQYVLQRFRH
# MRCKA, sequence (Q5VT25 whole entry): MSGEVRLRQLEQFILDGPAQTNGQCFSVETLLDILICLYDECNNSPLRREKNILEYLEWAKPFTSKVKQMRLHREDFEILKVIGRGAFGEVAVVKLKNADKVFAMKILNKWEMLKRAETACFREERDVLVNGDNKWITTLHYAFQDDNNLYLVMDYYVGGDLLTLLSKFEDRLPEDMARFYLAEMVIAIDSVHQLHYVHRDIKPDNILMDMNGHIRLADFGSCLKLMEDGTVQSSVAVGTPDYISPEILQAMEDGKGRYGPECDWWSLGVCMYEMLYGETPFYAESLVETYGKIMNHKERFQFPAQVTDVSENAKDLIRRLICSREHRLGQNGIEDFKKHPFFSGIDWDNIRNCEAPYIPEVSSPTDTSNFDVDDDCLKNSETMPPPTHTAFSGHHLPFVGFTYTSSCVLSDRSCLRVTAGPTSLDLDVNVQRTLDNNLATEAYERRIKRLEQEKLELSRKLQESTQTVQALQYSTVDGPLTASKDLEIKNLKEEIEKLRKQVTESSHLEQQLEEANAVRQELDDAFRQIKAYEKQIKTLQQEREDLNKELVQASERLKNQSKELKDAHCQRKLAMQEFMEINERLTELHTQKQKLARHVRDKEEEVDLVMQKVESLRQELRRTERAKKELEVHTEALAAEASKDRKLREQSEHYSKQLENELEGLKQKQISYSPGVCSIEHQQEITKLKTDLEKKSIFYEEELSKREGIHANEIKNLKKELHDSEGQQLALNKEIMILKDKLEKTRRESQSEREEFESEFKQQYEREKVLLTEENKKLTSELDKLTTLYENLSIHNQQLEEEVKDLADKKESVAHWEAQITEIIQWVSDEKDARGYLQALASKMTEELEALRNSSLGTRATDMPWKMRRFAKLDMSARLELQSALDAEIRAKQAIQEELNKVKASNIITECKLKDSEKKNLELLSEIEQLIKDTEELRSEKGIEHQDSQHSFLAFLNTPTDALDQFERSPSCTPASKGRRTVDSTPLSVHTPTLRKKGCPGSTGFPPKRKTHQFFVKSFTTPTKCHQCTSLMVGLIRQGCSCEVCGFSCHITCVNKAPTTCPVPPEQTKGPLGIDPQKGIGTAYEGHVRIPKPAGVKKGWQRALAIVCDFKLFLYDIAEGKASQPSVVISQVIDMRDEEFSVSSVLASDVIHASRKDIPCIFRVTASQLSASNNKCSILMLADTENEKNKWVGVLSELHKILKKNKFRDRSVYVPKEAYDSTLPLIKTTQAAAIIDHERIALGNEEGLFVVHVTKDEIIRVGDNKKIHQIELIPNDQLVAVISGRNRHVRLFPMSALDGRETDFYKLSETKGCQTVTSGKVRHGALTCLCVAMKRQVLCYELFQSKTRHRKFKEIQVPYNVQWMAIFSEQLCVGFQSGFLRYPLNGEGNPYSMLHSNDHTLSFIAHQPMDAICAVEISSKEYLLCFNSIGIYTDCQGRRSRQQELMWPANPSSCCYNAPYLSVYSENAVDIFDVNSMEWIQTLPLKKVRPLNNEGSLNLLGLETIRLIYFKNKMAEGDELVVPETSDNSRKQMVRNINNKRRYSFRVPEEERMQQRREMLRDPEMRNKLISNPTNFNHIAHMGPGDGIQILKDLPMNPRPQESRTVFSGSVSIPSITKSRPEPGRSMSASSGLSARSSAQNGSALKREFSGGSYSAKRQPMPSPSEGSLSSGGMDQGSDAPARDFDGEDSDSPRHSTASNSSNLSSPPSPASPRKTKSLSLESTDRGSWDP
smiles,measurement,setting,value
"C=CC(=O)Nc1ccc(OC)c(Nc2cc(-c3[nH]c(CC)nc3-c3cccc(NC(=O)c4cccc5c4NC(=O)c4ccccc4N5)c3)ccn2)c1 [Compound 4, N-(3-(5-(2-((5-Acrylamido-2-methoxyphenyl)amino)pyridin-4-yl)-2-ethyl-1H-imidazol-4-yl)phenyl)-11-oxo-10,11-dihydro-5H-dibenzo[b,e][1,4]diazepine-9-carboxamide]",remaining binding at 1 µM,MAP4K2,36%
same,remaining binding at 1 µM,PIK3CA(M1043I),55%
same,remaining binding at 1 µM,CSNK1A1,56%
same,remaining binding at 1 µM,TIE2,71%
same,remaining binding at 1 µM,DDR1,90%
same,remaining binding at 1 µM,ERN1,74%
same,remaining binding at 1 µM,PRKCH,69%
same,remaining binding at 1 µM,ERK8,100%
same,remaining binding at 1 µM,FLT3(N841I),97%
same,remaining binding at 1 µM,SRPK3,100%
same,remaining binding at 1 µM,NEK3,100%
same,remaining binding at 1 µM,CDK3,100%
same,remaining binding at 1 µM,MARK4,92%
same,remaining binding at 1 µM,PKN1,88%
same,remaining binding at 1 µM,SGK,86%
same,remaining binding at 1 µM,CDK2,95%
same,remaining binding at 1 µM,[1],100%
same,remaining binding at 1 µM,GRK7,99%
same,remaining binding at 1 µM,EGFR(S752-1759del),6%
same,remaining binding at 1 µM,OSR1,89%
same,remaining binding at 1 µM,NEK1,90%
same,remaining binding at 1 µM,ADCK4,85%
same,remaining binding at 1 µM,FLT3(R834Q),100%
same,remaining binding at 1 µM,MLK2,97%
same,remaining binding at 1 µM,LYN,22%
same,remaining binding at 1 µM,YANK3,96%
same,remaining binding at 1 µM,TESK1,94%
same,remaining binding at 1 µM,TAOK3,95%
same,remaining binding at 1 µM,MAP4K4,6.1%
same,remaining binding at 1 µM,MKNK1,100%
same,remaining binding at 1 µM,NDR2,77%
same,remaining binding at 1 µM,PIK3C2B,74%
same,remaining binding at 1 µM,MRCKA,0%
same,remaining binding at 1 µM,MAK,89%
same,remaining binding at 1 µM,CHEK2,87%
same,remaining binding at 1 µM,CAMK1D,100%
same,remaining binding at 1 µM,RET(V804L),99%
same,remaining binding at 1 µM,IKK-epsilon,100%
same,remaining binding at 1 µM,CLK3,74%

# — patent publication US20260224588A1, “BENZODIAZEPINONE-DERIVED INHIBITORS OF EGFR AND HER2” (The Research Foundation for the State University of New York, priority 2023, published 2026)
